Measurements published in ChEMBL document CHEMBL1126870, “The crystal structure, absolute configuration, and phosphodiesterase inhibitory activity of (+)-1-(4-bromobenzyl)-4-(3-(cyclopentyloxy)- 4-methoxyphenyl)-pyrrolidin-2-one” (J Med Chem, 1993).

Biological target: Phosphodiesterase 4 (Homo sapiens, UniProt P27815+Q08499+Q07343+Q08493)
Test: Inhibition of partially-purified PDE 4 from human monocytes

Row | IC50 | Compound
1 | 740 nM | COc1ccc([C@H]2CC(=O)N(Cc3ccc(Br)cc3)C2)cc1OC1CCCC1
2 | 170 nM | COc1ccc([C@@H]2CC(=O)N(Cc3ccc(Br)cc3)C2)cc1OC1CCCC1
